These results are taken from patent US5525627A, “Esters of acyl carnitines with long-chain aliphatic alcohols and pharmaceutical compositions containing same having antimycotic activity” (Sigma-Tau Industrie Farmaceutiche Riunite S.p.A., priority 1992, dated 1996).

By mortality is commonly meant the share of the test organisms that died. A low value points to more survivors.

The subject of one data set is Candida albicans (PG). Briefly: MIC and MFC for yeast and yeast-like strains. As to conditions: 48 hours, 35° C., read-out: Minimal Inhibitory Concentration (MIC). It counts as cell-based. On the procedure:
The following strains were used (the number of strains is in brackets): Candida (13); Criptococcus (2); Saccharormyces (1); Torulopsis (1).
Yeast Nitrogen Base supplemented with 0.15% asparagine and 1.0% glucose (as carbon source) was the medium utilized in the assays.
This medium was buffered with 0.165 M 2-(N-morpholino) propane sulfonic acid (MOPS), a non-chelating buffer.
Antimicrob. Agents Cheroother. Aug. 34.8:1542-1545).
The inoculum was prepared from an overnight broth culture (a 48-hour culture only for Cryptococcus) in Sabouraud broth and appropriately diluted to yield a final suspension containing approximately 5.0×10^6 Colony Forming Units per ml (CFU/ml), when compared to the Mc Farland's standard control (BRAY W. E., Clinical Laboratory Methods, 5th Ed. C. V. MOSBY, St. Louis, Mo, 1957).
After further diluting (1:50), a […] volume of such fungal suspensions and an equal volume of the substance solutions were distributed into each well of a microtiter plate (96 wells, round bottom). Such a procedure eventually allowed for an "in vitro" antimycotic activity assay utilizing final fungal inocula of approximately 5.0×10^4 CFU/ml.
The minimal fungicidal concentration was evaluated by spot-transferring onto Petri dishes, containing Sabouraud agar, 0.01-ml volumes of all the samples showing no visible fungal growth.

The subject of a further data set is filamentous fungi. In words: MIC / MFC for filamentous fungi, all strains. It counts as cell-based, Aspergillus, Fusarium, Mucor, Penicillium. As to conditions: versus susceptible strains; read-out: Mean MIC values. In short, it runs like this: (§1)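 Broth testing uses the yeast-like fungi procedure and the previous assay medium. Conidial inoculum of 5.0×10^4 CFU/ml comes from 72-hour Sabouraud agar cultures rinsed off with Sabouraud/Tween 80.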

A further data set has as its system yeast-like fungi. In words: MIC / MFC for yeast-like fungi, all strains. The class given is cell-based, Candida, Cryptococcus, Saccharomyces, Torulopsis. To be noted: versus susceptible strains; read-out: Mean MIC values. In short, it runs like this:
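Candida, Cryptococcus, Saccharomyces and Torulopsis strains tested by broth microdilution in Yeast Nitrogen Base with 0.15% asparagine and 1.0% glucose, buffered with 0.165 M MOPS; final inoculum about 5.0×10^4 CFU/ml from overnight (Cryptococcus 48-hour) Sabouraud cultures. MFC from spot-transfer of wells without visible growth onto Sabouraud agar.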

In data set [1] the test system is Candida pseudotropicalis (EC 1). Briefly: MIC for yeast and yeast-like strains. It counts as cell-based. To be noted: Kluyveromyces marxianus; 48 hours, 35° C.; read-out: Minimal Inhibitory Concentration (MIC). The method in brief:
(§2)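 Broth microdilution in Yeast Nitrogen Base with 0.15% asparagine and 1.0% glucose, buffered with 0.165 M MOPS. Inocula from overnight Sabouraud broth cultures (48 h for Cryptococcus), final approx. 5.0×10^4 CFU/ml, mixed with equal volume of compound solution.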

Data set [2] concerns Candida albicans (ATCC 2091). Briefly: MIC for yeast and yeast-like strains. The class given is cell-based. As to conditions: ATCC2091, 48 hours, 35° C., read-out: Minimal Inhibitory Concentration (MIC). In short, it runs like this:
as §2

The test system of data set [3] is Aspergillus fumigatus (1/A). Briefly: MIC for filamentous fungi. The class given is cell-based. To be noted: read-out: Minimal Inhibitory Concentration (MIC). The method in brief: as §1
Data set [4] has as its system Aspergillus niger (ATCC 16404). Briefly: MIC for filamentous fungi. It counts as cell-based. As to conditions: ATCC16404, read-out: Minimal Inhibitory Concentration (MIC). The method in brief: as §1
In data set [5] the test system is Aspergillus fumigatus (C/1). Briefly: MIC for filamentous fungi. It counts as cell-based. To be noted: read-out: Minimal Inhibitory Concentration (MIC). In short, it runs like this: as §1
Data set [6] relates to Aspergillus fumigatus (ATCC 28212). Briefly: MIC for filamentous fungi. The class given is cell-based. To be noted: ATCC28212, read-out: Minimal Inhibitory Concentration (MIC). In short, it runs like this: as §1
In data set [7] the test system is Aspergillus fumigatus (2/A). In words: MIC for filamentous fungi. It counts as cell-based. As to conditions: read-out: Minimal Inhibitory Concentration (MIC). In short, it runs like this:
as §1

A further data set has as its system Mucor mucedo (ATCC 7941). Briefly: MIC for filamentous fungi. To be noted: ATCC7941, read-out: Minimal Inhibitory Concentration (MIC). The class given is cell-based. In short, it runs like this:
as §1

The test system of data set [8] is Cryptococcus neoformans (4711). In words: MIC for yeast and yeast-like strains. As to conditions: 48 hours, 35° C., read-out: Minimal Inhibitory Concentration (MIC). It counts as cell-based. In short, it runs like this: as §2
Data set [9] concerns Candida tropicalis (5705). In words: MIC for yeast and yeast-like strains. The class given is cell-based. As to conditions: 48 hours, 35° C., read-out: Minimal Inhibitory Concentration (MIC). In short, it runs like this: as §2
The subject of data set [10] is Saccharomyces cerevisiae (ATCC 7752). In words: MIC for yeast and yeast-like strains. The class given is cell-based. As to conditions: ATCC7752, 48 hours, 35° C., read-out: Minimal Inhibitory Concentration (MIC). In short, it runs like this: as §2
A further data set concerns Candida albicans (A 54). Briefly: MIC for yeast and yeast-like strains. It counts as cell-based. To be noted: 48 hours, 35° C., read-out: Minimal Inhibitory Concentration (MIC). In short, it runs like this: as §2
The next data set deals with Candida albicans (Ca 2). In words: MIC for yeast and yeast-like strains. The class given is cell-based. To be noted: 48 hours, 35° C., read-out: Minimal Inhibitory Concentration (MIC). In short, it runs like this: as §2
In data set [11] the test system is Torulopsis candida (D.S.). Briefly: MIC for yeast and yeast-like strains. The class given is cell-based. As to conditions: Suzukiozyma candida; 48 hours, 35° C.; read-out: Minimal Inhibitory Concentration (MIC). The method in brief:
as §2

The test system of another data set is Candida albicans (562). In words: MIC for yeast and yeast-like strains. The class given is cell-based. As to conditions: 48 hours, 35° C., read-out: Minimal Inhibitory Concentration (MIC). The method in brief:
as §2

Data set [12] can be described thus: Assessment of behaviour and mortality in mice (Irwin's method). To be noted: mouse, in vivo; oral, dose 1000 (unit inferred), 4 animals/dose. Further details: species or system mice (male Crl:(CD-1)(ICR)BR). Here is the method: (§3) ASSESSMENT OF BEHAVIOUR AND MORTALITY IN MICE
(§4) The assessment of normal behaviour in mice was carried out following S. Irwin's method (Psychopharmacologia, 13, 222 [1968]). This method allows alterations in some behavioural, neurophysiologic and neurovegetative parameters to be detected, which are directly observable by the researcher. The study was conducted using male Crl:(CD-1)(ICR)BR mice (Charles River-Italy) weighing 22-25 g. following oral administration of the compounds suspended in carboxymethylcellulose (0.5% by weight in H2 O) to groups of 4 animals/dose.
(§5) The animals were continously kept under observation for five hours following treatment and twice a day in the subsequent five days. Mortality was also observed during the overall test period.

The test system of the next data set is mice. The data set is described as above. Also on record: species or system mice (male Crl:(CD-1)(ICR)BR). As to conditions: mouse, in vivo, po. On the procedure: as §3, §4, §5

Consider `CCCCCCCCCCCOC(=O)C[C@H](C[N+](C)(C)C)OC(=O)C(C)C` [ST 712, ISOBUTYRYL-L-CARNITINE UNDECYL ESTER CHLORIDE], for which the MIC with Candida albicans (PG) turned out to be 12.5 µg/mL; with filamentous fungi it was 30 µg/mL; with yeast-like fungi it was 9.37 µg/mL; in [1], 12.5 µg/mL; in data set [2], 12.5 µg/mL; in data set [3], 25 µg/mL. In addition, the MIC in data set [4] turned out to be 50 µg/mL; in [5], 25 µg/mL; in data set [6] it was 25 µg/mL; in data set [7], 25 µg/mL; in the data set on Mucor mucedo (ATCC 7941), 50 µg/mL; in data set [8] it was 3.12 µg/mL. The MIC in data set [9] stood at 3.12 µg/mL; in data set [10] it was 6.25 µg/mL; in the data set with Candida albicans (A 54), 12.5 µg/mL; in the data set with Candida albicans (Ca 2), 6.25 µg/mL; in data set [11], 12.5 µg/mL; in the data set on Candida albicans (562) it was 12.5 µg/mL. The molecule further had a mortality at 120 h in [12] of 0%. Besides, the Symptoms entry with mice was “NONE”.
